Active and inactive are the calls of the source.
Legend:
[1] = target: T1, Rac GTPase-activating protein 1 (Homo sapiens, UniProt Q9H0H5); assay: MgcRacGAP GTPase-activating activity inhibitors, confirmation, biochemical, ADP Hunter fluorescence, primary and confirmatory (AID 624330); format: functional
T1 sequence (Q9H0H5 whole entry): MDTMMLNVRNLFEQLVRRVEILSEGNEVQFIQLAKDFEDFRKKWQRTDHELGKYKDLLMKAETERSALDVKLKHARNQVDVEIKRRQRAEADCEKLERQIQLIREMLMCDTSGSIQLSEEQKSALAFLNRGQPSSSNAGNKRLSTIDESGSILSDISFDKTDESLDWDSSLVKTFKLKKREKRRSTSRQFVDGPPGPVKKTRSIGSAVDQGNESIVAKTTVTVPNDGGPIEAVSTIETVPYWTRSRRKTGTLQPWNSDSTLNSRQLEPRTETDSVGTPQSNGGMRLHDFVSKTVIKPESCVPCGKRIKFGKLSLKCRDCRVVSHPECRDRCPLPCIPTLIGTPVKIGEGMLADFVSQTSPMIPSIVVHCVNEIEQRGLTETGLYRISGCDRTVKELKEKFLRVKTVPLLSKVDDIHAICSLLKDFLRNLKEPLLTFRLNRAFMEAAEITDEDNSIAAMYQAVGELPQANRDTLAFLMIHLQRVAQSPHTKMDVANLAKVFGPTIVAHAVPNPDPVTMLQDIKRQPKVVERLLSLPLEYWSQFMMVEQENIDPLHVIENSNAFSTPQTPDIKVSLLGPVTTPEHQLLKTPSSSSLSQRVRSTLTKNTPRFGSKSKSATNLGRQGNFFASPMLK

[2] = HeLa cell cytotoxicity, dose response, cytotoxicity control for MgcRacGAP inhibitor project (AID 624300); format: functional
[3] = LGR2 antagonists, dose response, cell-based, HEK293, CRE-luciferase reporter, cherry pick, set 2 (AID 743343); format: functional;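 also: transfected cells were stimulated with diluted bursicon conditioned medium after compound addition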
[4] = MC4R antagonists, dose response, counter-screen for LGR2 antagonist project, cell-based, plate reader, cherry pick (AID 743444); format: functional;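 also: transfected HEK 293 cells stimulated with alpha-MSH peptide; potency of inhibitors of the alpha-MSH evoked signal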
Protein RecA = target: T2, Protein RecA (Mycobacterium tuberculosis, UniProt P9WHJ3); assay: Fluorescence Cell-Free Homogeneous Dose Retest to Identify Inhibitors of RecA-Intein Splicing Activity. [Related pubchem assays (depositor defined):AID2097, AID2223, AID489010, AID492950]; format: functional
T2 sequence (P9WHJ3 whole entry): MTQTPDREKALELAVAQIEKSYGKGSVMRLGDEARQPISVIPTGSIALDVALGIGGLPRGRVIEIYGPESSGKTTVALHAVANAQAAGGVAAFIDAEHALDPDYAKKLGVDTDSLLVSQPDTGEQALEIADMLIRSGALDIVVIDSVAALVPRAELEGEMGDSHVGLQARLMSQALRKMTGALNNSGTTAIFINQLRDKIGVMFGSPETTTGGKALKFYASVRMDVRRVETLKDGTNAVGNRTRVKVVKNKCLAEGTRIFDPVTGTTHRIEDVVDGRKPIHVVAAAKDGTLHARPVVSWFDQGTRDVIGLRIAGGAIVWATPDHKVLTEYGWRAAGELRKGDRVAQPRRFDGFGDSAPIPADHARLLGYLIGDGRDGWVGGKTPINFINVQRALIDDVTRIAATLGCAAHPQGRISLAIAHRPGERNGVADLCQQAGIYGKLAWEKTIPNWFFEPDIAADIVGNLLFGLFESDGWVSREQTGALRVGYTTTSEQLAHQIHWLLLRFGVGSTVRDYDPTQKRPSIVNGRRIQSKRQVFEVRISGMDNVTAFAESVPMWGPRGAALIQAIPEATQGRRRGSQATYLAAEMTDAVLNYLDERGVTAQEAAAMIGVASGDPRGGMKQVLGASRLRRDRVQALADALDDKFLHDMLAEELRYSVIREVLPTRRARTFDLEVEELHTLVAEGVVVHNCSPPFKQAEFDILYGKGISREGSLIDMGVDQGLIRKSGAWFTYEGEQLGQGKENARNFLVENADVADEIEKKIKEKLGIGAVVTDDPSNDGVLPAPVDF

H4 = assay: Luminescence Cell-Based Dose Response HTS to Identify Activators of 5'UTR Stem-Loop Driven Prion Protein mRNA Translation in H4 Neuroglioblastoma Cells. [Related pubchem assays: 1829 (Project Summary), 1814 (Primary HTS)]; format: functional; conditions: Homo sapiens
[5] = Luminescence Cell-Based Dose Confirmation HTS to Identify Activators of 5'UTR Stem-Loop Driven Alpha-Synuclein mRNA Translation in H4 Neuroglioblastoma Cells. [Related pubchem assays: 1829 (Project Summary), 1814 (Primary HTS)]; format: functional
[6] = inhibitors of PGC1a acetylation in cells, dose response, cell-based, cherry-picked samples (AID 720514); format: functional;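 also: potency may reflect raised or lowered acetylation signal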
[7] = Luminescence Cell-Based Dose Response HTS to Identify Activators of Luciferase Translation or Activity in H4 […] Cells. [Related pubchem assays: 1829 (Project Summary), 1814 (Primary HTS)]; format: functional
[8] = target: T3, Replicative DNA helicase DnaB (Mycobacterium tuberculosis, UniProt P9WMR3); assay: DnaB intein splicing inhibitors, dose response, biochemical, cell-free fluorescence (AID 449749); format: functional
T3 sequence (P9WMR3 whole entry): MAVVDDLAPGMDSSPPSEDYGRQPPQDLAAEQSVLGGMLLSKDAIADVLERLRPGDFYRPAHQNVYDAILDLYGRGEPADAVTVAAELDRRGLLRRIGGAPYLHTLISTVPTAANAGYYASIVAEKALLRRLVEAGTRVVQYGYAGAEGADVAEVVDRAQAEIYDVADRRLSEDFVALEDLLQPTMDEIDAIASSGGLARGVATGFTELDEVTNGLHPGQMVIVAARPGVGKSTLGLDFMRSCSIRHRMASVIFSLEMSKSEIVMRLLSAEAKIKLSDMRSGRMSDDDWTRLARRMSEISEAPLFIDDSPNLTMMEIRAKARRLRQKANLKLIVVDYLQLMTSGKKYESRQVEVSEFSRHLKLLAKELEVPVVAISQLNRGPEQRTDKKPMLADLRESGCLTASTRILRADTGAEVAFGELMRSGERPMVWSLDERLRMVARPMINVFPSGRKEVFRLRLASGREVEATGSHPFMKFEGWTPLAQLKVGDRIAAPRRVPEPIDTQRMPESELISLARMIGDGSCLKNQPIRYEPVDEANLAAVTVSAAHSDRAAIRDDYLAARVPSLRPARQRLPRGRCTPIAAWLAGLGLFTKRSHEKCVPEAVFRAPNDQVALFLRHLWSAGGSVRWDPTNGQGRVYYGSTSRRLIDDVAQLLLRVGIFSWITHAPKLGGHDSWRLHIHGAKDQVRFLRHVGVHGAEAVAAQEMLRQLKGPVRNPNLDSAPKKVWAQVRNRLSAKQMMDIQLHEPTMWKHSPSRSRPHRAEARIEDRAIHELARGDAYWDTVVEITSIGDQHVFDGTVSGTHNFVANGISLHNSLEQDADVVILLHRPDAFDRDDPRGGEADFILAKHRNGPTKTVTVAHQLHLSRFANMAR

[9] = inhibitors of intracellular T. cruzi replication, confirmation, NIH3T3 host cells, beta-gal luminescence (AID 2044); format: functional, cell-based;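 also: intracellular parasites grown in NIH/3T3 mouse fibroblasts as host cells; luminescent beta-galactosidase reporter signal from transgenic T. cruzi replicating inside host cells; inhibitors lower the luminescence signal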
[10] = HEK293 cell cytotoxicity, dose response, cytotoxicity control, plate reader, cherry-picked samples (AID 743446); format: functional, cell-based
[11] = A549 cell cytotoxicity, dose response, cytotoxicity control, plate reader, cherry-pick, antagonist series (AID 743412); format: functional, cell-based
[12] = HepG2 cell cytotoxicity, dose response, cytotoxicity control, plate reader, cherry-pick, antagonist series (AID 743416); format: functional, cell-based
[13] = cytotoxicity toward NIH3T3 fibroblasts, dose response, counter-screen, cell-based, ATP luminescence, mouse fibroblasts (AID 2010); format: functional;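 also: cells exposed to compound for about 90 hours before reading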
[14] = intracellular Trypanosoma cruzi inhibitors in host cells – cell-based, plate reader, cherry-pick samples, set 3, dose response (AID 651818); format: functional;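 also: compounds incubated with infected cells for about four days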
[15] = target: T4, DNA repair and recombination protein RAD54-like (Homo sapiens, UniProt Q92698); assay: inhibitors of human RAD54 branch migration, confirmation, biochemical, fluorescence, cherry-picked samples, dose series (AID 651657); format: functional
T4 sequence (Q92698 whole entry): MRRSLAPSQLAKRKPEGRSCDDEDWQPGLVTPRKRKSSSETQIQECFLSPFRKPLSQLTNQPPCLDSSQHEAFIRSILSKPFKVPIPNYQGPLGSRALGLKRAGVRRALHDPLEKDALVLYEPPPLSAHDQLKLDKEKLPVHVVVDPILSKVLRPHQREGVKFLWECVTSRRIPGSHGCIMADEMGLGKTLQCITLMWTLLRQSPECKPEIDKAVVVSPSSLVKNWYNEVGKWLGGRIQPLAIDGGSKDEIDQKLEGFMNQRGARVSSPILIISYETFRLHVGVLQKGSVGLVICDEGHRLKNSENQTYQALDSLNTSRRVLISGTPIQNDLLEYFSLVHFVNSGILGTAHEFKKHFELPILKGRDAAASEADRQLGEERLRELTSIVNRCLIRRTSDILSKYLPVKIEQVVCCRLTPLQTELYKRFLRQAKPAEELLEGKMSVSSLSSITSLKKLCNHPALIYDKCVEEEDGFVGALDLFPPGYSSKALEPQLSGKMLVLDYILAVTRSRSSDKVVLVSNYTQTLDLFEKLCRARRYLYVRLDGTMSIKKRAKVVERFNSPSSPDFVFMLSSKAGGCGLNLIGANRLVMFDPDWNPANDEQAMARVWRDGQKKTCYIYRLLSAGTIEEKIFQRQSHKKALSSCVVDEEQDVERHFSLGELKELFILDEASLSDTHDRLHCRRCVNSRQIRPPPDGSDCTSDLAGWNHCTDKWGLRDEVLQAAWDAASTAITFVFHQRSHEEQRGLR

[16] = target: T5, DNA repair protein RAD52 homolog (Homo sapiens, UniProt P43351); format: functional, biochemical
T5 sequence (P43351 whole entry): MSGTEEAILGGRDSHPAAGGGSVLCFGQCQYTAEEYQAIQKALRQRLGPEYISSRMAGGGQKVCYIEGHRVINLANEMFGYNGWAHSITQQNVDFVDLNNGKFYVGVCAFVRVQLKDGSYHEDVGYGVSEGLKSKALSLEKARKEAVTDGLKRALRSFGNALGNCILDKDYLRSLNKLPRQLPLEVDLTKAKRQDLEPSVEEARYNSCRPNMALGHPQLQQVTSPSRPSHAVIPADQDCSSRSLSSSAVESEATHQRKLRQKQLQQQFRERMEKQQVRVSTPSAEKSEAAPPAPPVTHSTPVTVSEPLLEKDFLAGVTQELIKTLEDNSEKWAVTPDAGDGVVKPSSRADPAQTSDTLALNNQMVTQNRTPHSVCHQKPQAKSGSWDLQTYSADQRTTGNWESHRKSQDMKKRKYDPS

[17] = off-target signal loss in HeLa-CEM21 co-culture – HeLa F-luc CTL cells, cherry-picked, counter-screen for HIV-1 Env fusion inhibitor project, dose response (AID 652040); format: functional, cell-based;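 also: potency for signal decrease marking cytotoxic or nonspecific inhibition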
[18] = ZM109 Env clade C HIV-1 fusion inhibitors, dose response, HeLa effector, CEM target cells, luciferase, cherry-pick (AID 652058); format: functional, cell-based
[19] = inhibitors of HIV Env-driven cell fusion, dose response, cherry-pick (AID 652057); format: functional, cell-based
[20] = inhibitors of clade B AD8 Env fusion, dose response, cell-based, cherry-pick (AID 652062); format: functional;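 also: luciferase signal from cell-cell fusion driven by HIV-1 clade B AD8 Env; potency is for inhibitors of fusion seen as a drop in luminescence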
[21] = target: FAD-linked sulfhydryl oxidase ALR (Homo sapiens, UniProt P55789); assay: inhibitors of human ALR sulfhydryl oxidase, dose response, biochemical, H2O2 detection, luminescence, cherry-pick (AID 493248)
FAD-linked sulfhydryl oxidase ALR, sequence (P55789 whole entry): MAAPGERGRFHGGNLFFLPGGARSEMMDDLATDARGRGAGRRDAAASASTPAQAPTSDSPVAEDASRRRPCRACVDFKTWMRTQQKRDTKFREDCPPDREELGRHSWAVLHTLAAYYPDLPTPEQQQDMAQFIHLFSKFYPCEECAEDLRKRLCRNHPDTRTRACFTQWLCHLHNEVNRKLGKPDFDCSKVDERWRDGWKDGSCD

Q: Which results are given for `Cc1ccc(S(=O)(=O)c2cc(Nc3ccccc3)ccc2O)cc1`?
A: IC50 [1]: 48.9 µM (active); CC50 [2]: 100 µM (active)

Q: Which results are given for `O=c1c(Cl)c(Cl)cnn1Cc1nnc(-c2ccc(Cl)cc2)o1`?
A: AC50 [3]: 25.3 µM (active); AC50 [4]: 30.9 µM (active); EC50 (Protein RecA): 2.95 µM (active); EC50 (H4): > 120 µM (not active); EC50 [5]: > 120 µM (not active); AC50 [6]: 7.83 µM (active); EC50 [7]: > 120 µM (not active); AC50 [8]: 9.97 µM (active); EC50 [9]: 1.15 µM (active); AC50 [10]: 8.16 µM (active); AC50 [11]: 7.33 µM (active); AC50 [12]: 8.01 µM (active); EC50 [13]: 2.02 µM (active)

Q: With `C[C@@H]1CN([C@H](C)CO)C(=O)Cc2cc(NC(=O)Nc3ccc4c(c3)OCO4)ccc2O[C@@H]1CN(C)Cc1ccc(C(F)(F)F)cc1` as the molecule, how does the AC50 [14] read?
A: 3.86 µM (active)

Q: Which results are given for `CN1CCCN(c2cc(-c3ccc4ccccc4c3)nc3ccnn23)CC1`?
A: AC50 [15]: 8.49 µM (active); AC50 [16]: 1.57 µM (active)

Q: With `C[C@@H]1CNC(=O)c2c(C(=O)N(C)Cc3ccccc3)ncn21` as the molecule, how does the AC50 [17] read?
A: 3.39 µM (active)

Q: What about the AC50 [18] of the same molecule?
A: 4.8 µM (active)

Q: And the AC50 [19]?
A: 1.86 µM (active)

Q: And the AC50 [20]?
A: 3.68 µM (active)

Q: Which AC50 [17] does the source give for `COc1ccc(-c2c[nH]nc2N)c(OC)c1` here?
A: 20 µM (active)

Q: And the AC50 [18]?
A: 32.5 µM (active)

Q: What about the AC50 [19] of the same molecule?
A: 3.7 µM (active)

Q: What about the AC50 [21] of the same molecule?
A: 0.411 µM (active)

Q: And the AC50 [20]?
A: 4.98 µM (active)

Q: For `CN(C)c1ccc2c(c1)C(=NO)c1ccccc1-2`, which IC50 [1] is on record?
A: 33.5 µM (active)

Q: And the CC50 [2]?
A: 100 µM (active)
